These results are taken from patent US8013153B2, “Substituted pyrimidine kinase inhibitors” (Janssen Pharmaceutica, N.V., priority 2006, dated 2011).

One data set deals with HCT-116 colon carcinoma. The data set can be described thus: Inhibition of in vitro cell proliferation (HCT116).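 Also: cells exposed to compound for 24 h, then 14C-thymidine added for a further 24 h and its uptake into DNA counted by scintillation, DMSO-only wells as control.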 The class given is cell-based, human. The note with it: Homo sapiens, HCT-116, 14C-thymidine incorporation. For orientation: Dividing cells build labelled thymidine or BrdU into new DNA.
Data set [1] concerns A431 human epidermoid carcinoma. Put plainly: In vivo inhibition of tumor growth, A431 model. Set-up: species or system athymic nude mice. The note with it: 10 mg/kg daily, oral. From the text: (§1) Female Nu/Nu˜nuBR athymic nude mice (obtained from Charles River Laboratories), at the age of 5-6 weeks were feed water and an irradiated standard rodent diet ad libitum, and housed in specific pathogen-free conditions, according to the guidelines of the American Association for Accreditation of Lab Animal Care (AALAC).
(§2) Mice were implanted subcutaneously in the right hind flank with the various tumor cell suspensions in HBSS containing 10% FBS: A431 human epidermoid carcinoma (4×10^6 cells/mouse), HCT116 human colorectal carcinoma (4×10^6 cells/mouse) and A375 human skin melanoma (2×10^6 cells/mouse). […]
(§3) The tumors were allowed to establish growth for 10 to 14 days. Tumor size was measured every 3 days. […]
(§4) Tumor measurements and body weights were recorded individually (2×/week) during the treatment period of the experiment. Tumors were measured using a digital caliper. Data was recorded/calculated using Study Director software (StudyLog Systems, Inc.) and graphs were created in GraphPad Prizm.
(§5) The volume of each tumor in an animal was calculated according to the formula: (D×d^2)/2, where the diameters were determined from two orthogonal measurements on each tumor. The mean tumor volume was determined by averaging all tumor volumes in each group. The mean body weight was determined by averaging all body weights in each group. […]

Data set [2] relates to HCT116 human colorectal carcinoma. Put plainly: In vivo inhibition of tumor growth, HCT116 model. Set-up: species or system athymic nude mice. Conditions: 10 mg/kg daily, oral.
Excerpt: as §1, §2, §3, §4, §5

A further data set relates to A375 human skin melanoma. Put plainly: In vivo inhibition of tumor growth, A375 model. Set-up: species or system athymic nude mice.
Excerpt: as §1
Mice were implanted subcutaneously in the right hind flank with the various tumor cell suspensions in HBSS containing 10% FBS: A431 human epidermoid carcinoma (4×10^6 cells/mouse), HCT116 human colorectal carcinoma (4×10^6 cells/mouse) and A375 human skin melanoma (2×10^6 cells/mouse).
The A431 epidermoid carcinoma cell line was chosen due to its ability to secrete VEGF in culture and its dependency on VEGF for angiogenesis and growth in vivo (Viloria-Petit A, Crombet T, Jothy S, et al. (2001) Cancer Res 61: 5090-5101). The HCT116 colon carcinoma cell line is dependent on the expression of VEGF to form tumors in nude mice (Okada F, Rak J, St. Croix B, et al. (1998) Proc Natl Acad Sci USA 95: 3609-3614). […]
In the A375 model, Compound 50 was administered at 100 mg/kg, qd. Treatment ended after 28 days, then tumor growth delay was analyzed to day 60.
as §3, §4
The volume of each tumor in an animal was calculated according to the formula: (D×d^2)/2, where the diameters were determined from two orthogonal measurements on each tumor. The mean tumor volume was determined by averaging all tumor volumes in each group. The mean body weight was determined by averaging all body weights in each group.
The standard deviation was calculated according to the formula (where x was the tumor volume): [Σx^2−((Σx)2/n)]/n−1 […]

The subject of data set [3] is VEGF-induced angiogenesis. Put plainly: Mouse Corneal Micropocket Assay. The data set is classed as in vivo, C57BL/6J mice. From the text:
This method has been described in detail (see Kenyon B, Voest E E, Chen C C, Flynn E, Folkman J and D'Amato R J, A model of angiogenesis in the mouse cornea, Invest. Opthalmol. Vis. Sci., 1996, 37:1625-1632; and, LaMontagne K, Littlewood-E A, Schnell C, O'Reilly T, Wyder L, Sanchez T, Probst B, Butler J, Wood A, Liau G, Billy E, Theuer A, Hla T and Wood J, Antagonism of sphingosine-1-phosphate receptors by FTY720 inhibits angiogenesis and tumor vascularization, Cancer Res., 2006, 66:221-31) and is an in vivo functional assay that provides an important link between biochemical and cellular inhibition (i.e., VEGFR-2 autophosphorylation and VEGF-dependent migration) and functional biological end points (i.e., VEGF-induced angiogenesis in vivo).
Pellets containing the slow-release polymer Hydron® and sucralfate with 180 ng rHuVEGF165 were implanted into the cornea of female C57BL/6J mice. Daily oral treatment with either Compound 50 (10 mg/kg or 100 mg/kg) or vehicle (0.5% methylcellulose) was started 24 hours later. […] After sacrifice on day 6, the vascular response was quantified using a linear reticule through the slit lamp. Inhibition was determined by the formula: Inhibition=[(0.2)(π)(new blood vessel length)(clock hours of neovessels)]
The circumferential zone was measured as clock hours with a 360° reticule (where 30° of arc equals 1 clock hour). […]

SMILES strings stand for the structures. Where “and” joins values, the source holds several entries; their conditions need not be identical. Equal entries are not always repeated. Some results are limits rather than exact numbers.

What is called IC50 is the midpoint of a concentration-inhibition curve. Broadly, the inhibition of growth is the share of the control response that was lost under treatment. Low values mean a weak effect, high ones a strong effect. In turn, `CCNC(=O)Nc1ccc(Oc2ncnc(N)c2/C=N/OC)cc1Cl` [Cpd 50, 1-{4-[6-amino-5-(methoxyimino-methyl)-pyrimidin-4-yloxy]-2-chloro-phenyl}-3-ethyl-urea] registered an IC50 in the data set with HCT-116 colon carcinoma of 3.7 µM. The “inhibition of tumor growth” value in data set [1] and in data set [2] was under 50% in each case. Besides, in the data set on A375 human skin melanoma (100 mg/kg qd for 28 days), the “tumor growth delay maintained after completion of treatment” value was 3 weeks. In the data set on A375 human skin melanoma (28 days of continuous dosing, 100 mg/kg), the “body weights of treated animals” value is “comparable to the control group”. Also, the inhibition of growth with A375 human skin melanoma (daily doses of 100 mg/kg, oral, 28 days) is 90%. Also, the “% Inhibition of blood vessel growth compared to the vehicle group” value in data set [3] (10 mg/Kg daily oral) was 15% and 15 ± 2%; in data set [3] (100 mg/Kg daily oral), 83% and 83 ± 6%.
